# Laboratory results: patent US20200352914A1, “METHODS OF TREATING HYPERTENSION WITH ACTIVATORS OF TIE-2” (Aerpio Pharmaceuticals, Inc., priority 2019, published 2020)
# Columns and labels:
# [1] = system: endothelium-intact aortic rings; experiment: Vascular reactivity of aortic rings from C57/BL6 mice (myograph, TABLE 28); set-up: species or system mouse
# Method: (§1) Aortic rings from eight to ten-week old male C57/BL6 mice were used to investigate the effects of Compound 2 on endothelial function. Twelve to fourteen-week old male Ins2^Akita mice and non-diabetic littermate controls were used to study the effects of Compound 2 on diabetes-associated endothelial dysfunction. Myograph experiments were performed in modified Krebs-Henseleit solution. Aortae were dissected free of adhering tissue, cut into 2-mm segments, and mounted in 5-mL myograph chambers under a basal tension of 1 g. Relaxation to cumulatively increasing concentrations (0.001-100 μmol/L) of Compound 2 or solvent (DMSO) was assessed in endothelium-intact aortic segments pre-contracted with phenylephrine (1 μmol/L) in the absence or presence of N^ω-nitro-L-arginine methyl ester (L-NAME; 300 μmol/L).
# To assess the role for VE-PTP in the regulation of vascular reactivity, endothelium-intact rings of murine aortae were incubated with increasing concentrations of Compound 2.
# FIG. 24 panels A-D illustrate the effect of Compound 2 on endothelial function. FIG. 24 panel A illustrates concentration dependent effect of Compound 2 on the tone of endothelium-intact aortic rings. Experiments were performed in the absence and presence of an eNOS inhibitor, L-NAME (300 μmol/L). FIG. 24 panels B-D illustrate the effect of solvent (Sol, DMSO) and Compound 2 (1, 3, or 10 μmol/L) on the contractile response to phenylephrine (PE; FIG. 24 panel B), and relaxation induced by either sodium nitroprusside (SNP; FIG. 24 panel C) or acetylcholine (ACh; FIG. 24 panel D). The dotted line in FIG. 24 panel D represents responses in endothelium-denuded aortic rings; n=5 mice/group.
# [2] = system: endothelium-intact aortic rings from WT and Akita mice; experiment: Vascular reactivity of aortic rings from diabetic Ins2Akita mice and WT littermates (TABLE 29); set-up: species or system mouse; settings: 10 μmol/L
# Method: as §1
# To determine whether VE-PTP inhibition affects endothelial dysfunction that accompanies diabetes, aortic rings were isolated from 12-week old diabetic Ins2^Akita(Akita) mice and their non-diabetic littermates.
# FIG. 29 panels A-B illustrate the effects of Compound 2 on diabetes-induced endothelial dysfunction. FIG. 29 panel A illustrates the effects of Compound 2 on acetylcholine-induced relaxation of endothelium-intact aortic rings from WT and Akita mice.
# human endothelial cells = experiment: NO assay (nitrite in supernatant) in human endothelial cells; type: cell-based; settings: 0.3-30 μmol/L, 30 minutes
# Method: Confluent human endothelial cell monolayers were cultured overnight in MCDB131 containing 0.1% BSA and sepiapterin (10 μmol/L). The monolayers were then incubated with increasing concentrations of Compound 2 (0.3-30 μmol/L) or solvent (DMSO) for 30 minutes. In separate experiments, cells treated with a control siRNA or siRNA directed against ABL1 were cultured in MCDB131 containing 0.1% BSA and sepiapterin (10 μmol/L), and then treated with Compound 2 (30 μmol/L) or solvent (DMSO) for 30 minutes before the addition of Yoda1 (1 μmol/L) for an additional 30 minutes. HEK293 cells co-transfected with wild-type eNOS and wild-type ABL1, DN ABL1, or GFP (as a control) were cultured overnight in minimal essential medium containing 0.5% heat-inactivated FCS and sepiapterin (10 μmol/L). Aliquots of the culture media were collected before and after each treatment. Potential cell debris was removed by centrifugation of the media at 1000 rpm for 5 minutes. NO release was assessed by determining the amount of nitrite in the cell supernatants using a Nitric Oxide Analyzer after reaction with iodide and acetic acid under nitrogen at room temperature.
# To investigate the role of VE-PTP on the regulation of eNOS, human endothelial cells were treated with increasing concentrations of Compound 2 (for 30 minutes) and the generation of NO was assessed using a NO analyzer.
# recombinant human VE-PTP = recombinant human VE-PTP (Homo sapiens, UniProt P23467); experiment: Human VE-PTP (HPTPβ) phosphatase assay on eNOS Tyr81; type: biochemical; settings: pre-incubation with 10 μmol/L; cell-free
# recombinant human VE-PTP, sequence (P23467 23-1997): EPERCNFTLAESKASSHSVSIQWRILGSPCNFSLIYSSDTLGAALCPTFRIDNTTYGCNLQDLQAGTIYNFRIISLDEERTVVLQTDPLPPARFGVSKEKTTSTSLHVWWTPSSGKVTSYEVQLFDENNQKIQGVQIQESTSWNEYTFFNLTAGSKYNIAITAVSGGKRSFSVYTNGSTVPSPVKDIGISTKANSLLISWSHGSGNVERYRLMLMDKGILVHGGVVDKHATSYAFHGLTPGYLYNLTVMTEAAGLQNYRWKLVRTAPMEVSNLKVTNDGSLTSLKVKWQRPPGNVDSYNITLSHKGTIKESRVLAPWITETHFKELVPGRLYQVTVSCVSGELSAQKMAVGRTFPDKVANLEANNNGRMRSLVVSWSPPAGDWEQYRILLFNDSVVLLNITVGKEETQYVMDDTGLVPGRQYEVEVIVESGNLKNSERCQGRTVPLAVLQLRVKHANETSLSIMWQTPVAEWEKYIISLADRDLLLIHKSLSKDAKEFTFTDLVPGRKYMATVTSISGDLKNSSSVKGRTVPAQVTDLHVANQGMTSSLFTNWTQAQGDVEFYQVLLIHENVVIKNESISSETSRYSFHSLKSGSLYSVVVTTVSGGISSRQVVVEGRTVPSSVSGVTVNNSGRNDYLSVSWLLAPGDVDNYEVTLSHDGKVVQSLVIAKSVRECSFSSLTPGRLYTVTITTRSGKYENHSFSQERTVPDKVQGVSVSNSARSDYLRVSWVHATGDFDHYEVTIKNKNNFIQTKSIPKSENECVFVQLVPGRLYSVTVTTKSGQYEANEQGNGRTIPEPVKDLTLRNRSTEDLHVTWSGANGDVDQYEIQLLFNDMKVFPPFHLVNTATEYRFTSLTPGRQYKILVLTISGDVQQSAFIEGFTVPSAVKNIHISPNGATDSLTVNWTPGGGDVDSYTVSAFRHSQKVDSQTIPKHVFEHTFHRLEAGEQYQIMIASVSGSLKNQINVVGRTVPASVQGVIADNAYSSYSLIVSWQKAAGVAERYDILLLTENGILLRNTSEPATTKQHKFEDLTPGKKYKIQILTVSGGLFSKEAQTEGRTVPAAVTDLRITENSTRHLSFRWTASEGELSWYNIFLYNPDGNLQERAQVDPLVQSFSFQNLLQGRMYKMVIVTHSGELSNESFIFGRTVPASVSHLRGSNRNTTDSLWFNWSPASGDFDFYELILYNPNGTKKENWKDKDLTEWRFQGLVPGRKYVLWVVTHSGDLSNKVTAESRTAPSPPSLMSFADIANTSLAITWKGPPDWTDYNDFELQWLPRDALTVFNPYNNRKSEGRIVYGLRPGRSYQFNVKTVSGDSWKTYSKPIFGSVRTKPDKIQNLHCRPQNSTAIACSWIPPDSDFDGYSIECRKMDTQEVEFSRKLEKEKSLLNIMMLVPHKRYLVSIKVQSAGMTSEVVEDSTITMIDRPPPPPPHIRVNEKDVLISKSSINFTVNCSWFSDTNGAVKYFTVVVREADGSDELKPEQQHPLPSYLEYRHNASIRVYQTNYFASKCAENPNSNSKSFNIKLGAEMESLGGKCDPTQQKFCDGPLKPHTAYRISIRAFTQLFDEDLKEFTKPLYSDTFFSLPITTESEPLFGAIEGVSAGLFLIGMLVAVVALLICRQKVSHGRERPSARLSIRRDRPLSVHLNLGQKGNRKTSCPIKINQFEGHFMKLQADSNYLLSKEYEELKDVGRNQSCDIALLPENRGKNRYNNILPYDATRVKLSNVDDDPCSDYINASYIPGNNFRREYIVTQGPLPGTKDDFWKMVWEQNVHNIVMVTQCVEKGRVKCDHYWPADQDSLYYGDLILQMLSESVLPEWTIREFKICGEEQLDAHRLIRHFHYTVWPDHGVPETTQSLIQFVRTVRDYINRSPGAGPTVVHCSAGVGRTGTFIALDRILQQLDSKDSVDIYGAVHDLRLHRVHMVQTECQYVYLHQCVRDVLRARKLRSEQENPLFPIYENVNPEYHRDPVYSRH
# Method: Confluent monolayers of human endothelial cells expressing FLAG-tagged eNOS were cultured overnight in MCDB131 containing 0.1% BSA and then stimulated with Yoda1 (1 μmol/L) for 30 minutes to elicit phosphorylation of eNOS on Tyr81. eNOS-FLAG immunoprecipitates were used as substrates to test the ability of recombinant human VE-PTP to dephosphorylate eNOS Tyr81 in a cell-free in vitro reaction. Briefly after washing the FLAG-eNOS, immunoprecipitates were suspended in phosphatase assay buffer containing Tris/HCl pH 7.5 (50 mmol/L), NaCl (150 mmol/L), EDTA (1 mmol/L), and EDTA-free protease inhibitors mix at room temperature. An aliquot of the eNOS-FLAG immunoprecipitate was immediately processed for immunoblotting (input) and the remainder was divided into 6 identical aliquots and incubated for up to 10 minutes at room temperature in phosphatase assay buffer containing DTT (3 mmol/L) and recombinant human VE-PTP (100 U/50 μl reaction). Experiments were performed in the presence of solvent (1% DMSO) or Compound 2 (10 μmol/L) and reactions were stopped by boiling samples for 10 minutes in SDS sample buffer. eNOS phosphorylation was then analyzed by SDS-PAGE and immunoblotting.
# Sprague-Dawley rats = experiment: MCT lung injury rat model of pulmonary hypertension (TABLE 30); type: in vivo; settings: subset (n=3) of the monocrotaline group; s.c. injection at day 21
# Method: The MCT lung injury rat model was used to assess the effects of a Tie-2 activator disclosed herein, Compound 2, as a vasodilator of the pulmonary vasculature. At day 0, rats were treated with a single dose of 60 mg/kg monocrotaline (N=5) and compared to control rats (N=5), which were treated with vehicle. Animals from both groups underwent normal rodent care until day 21. At day 21, rats underwent simultaneous cannulation of the carotid and pulmonary artery/right ventricle. Arterial pressure was measured before and after subcutaneous injection of vehicle. Following the washout period of time, rats underwent the same measurements before and after subcutaneous injection of Compound 2. Hemodynamic endpoints included systemic pressure (via carotid catheterization) and pulmonary vascular pressure (right ventricular systolic pressure) vs. true pulmonary arterial pressure.
# FIG. 31 panel A illustrates the effects of Compound 2 on mean arterial blood pressure (ABP), heart rate, and right ventricular pressure. Each time point represents a beat-to-beat analysis for each variable over a 2-min period, which were then averaged. […] All animals received Compound 2 at time=0 min.
# After obtaining hemodynamic data, the rats were euthanized to assess the extent of RV hypertrophy, a marker of PH. […] RV hypertrophy was calculated based on the Fulton index using the following weight ratio: (RV/(LV+S)).
# [3] = arteries precontracted with phenylephrine, n=5 mice/group
smiles,measurement,setting,value
CCc1nc([C@H](Cc2ccc(NS(=O)(=O)O)cc2)NC(=O)[C@H](Cc2ccccc2)NC(=O)OC)cs1 [Compound 2],phenylephrine-induced contractions and sodium nitroprusside-induced relaxations,"[1]; 1, 3, or 10 μmol/L, 30 minutes",Neither phenylephrine-induced contractions nor sodium nitroprusside-induced relaxations were affected
same,acetylcholine-induced relaxations of endothelium-intact vessels,"[1]; 1, 3, or 10 μmol/L, concentration-dependent",significantly enhanced
same,relaxation response in presence of eNOS inhibitor L-NAME,[1]; L-NAME 300 μmol/L,abolished
same,Emax of concentration-dependent relaxation,[1]; [3],73.4±2.9%
same,pEC50 of concentration-dependent relaxation,[1]; [3],5.14±0.05 log mol/L
same,acetylcholine-induced and NO-mediated relaxation in aortic rings from diabetic mice,[2]; Ins2Akita mice,restored
same,elevated phenylephrine-induced contraction of aortic rings,[2]; Ins2Akita mice,not influenced
same,acetylcholine-induced endothelium-dependent relaxation,[2]; tissues from non-diabetic mice,potentiated responses
same,basal NO production (nitrite in supernatant),human endothelial cells,enhanced basal NO production
same,time-dependent dephosphorylation of eNOS Tyr81 by recombinant VE-PTP,recombinant human VE-PTP,abolished
same,right ventricular pressure,Sprague-Dawley rats,significant drop in right ventricular pressure
